# Measured values: article PMC9921851, “Synthesis and Preclinical Evaluation of Three Novel ^68Ga-Labeled Bispecific PSMA/FAP-Targeting Tracers for Prostate Cancer Imaging” (Molecules, 2023)
# How the values were obtained:
# [1] = tested on: FAP-expressing HEK293T:hFAP tumor xenografts; experiment: Ex vivo biodistribution in HEK293T:hFAP tumor-bearing mice; conditions: 1 h post injection, mean ± SD, n = 4
# Description: Biodistribution studies were also conducted at 1 h post injection with [^68Ga]Ga-AV01017, [^68Ga]Ga-AV01030, [^68Ga]Ga-AV01038, [^68Ga]Ga-HTK03041, and [^68Ga]Ga-FAPI-04 in HEK293T:hFAP tumor-bearing mice (Figure 6 and Table S5, Supplementary Materials). Tumor uptake values for [^68Ga]Ga-AV01017, [^68Ga]Ga-AV01030, [^68Ga]Ga-AV01038, [^68Ga]Ga-HTK03041, and [^68Ga]Ga-FAPI-04 were 2.99 ± 0.37, 3.69 ± 0.81, 3.64 ± 0.83, 0.62 ± 0.19, and 12.5 ± 2.00 %ID/g, respectively. There was a very low tumor uptake in mice injected with [^68Ga]Ga-HTK03041, showing very minimal FAP expression in this tumor model. The uptake levels of these tracers on the major organs and tissues are consistent with the trends observed in the LNCaP tumor-baring mice (Figure 5 and Supplemental Table S4).
# (§1) Imaging and biodistribution studies were performed using male NOD.Cg-Rag1tm1Mom Il2rgtm1Wjl/SzJ (NRG) mice following previously published procedures. The experiments were conducted according to the guidelines established by the Canadian Council on Animal Care and approved by Animal Ethics Committee of the University of British Columbia. The mice were briefly sedated by inhalation of 2.5% isoflurane in oxygen, and 100 µL LNCaP (2 × 10^5 cells) or HEK293T:hFAP (8.5 × 10^6 cells) cells were inoculated subcutaneously behind the left shoulder. When the tumor grew to 5–8 mm in diameter over 3–4 weeks and 4–5 weeks for HEK293T:hFAP and LNCaP tumors, respectively, the mice were used for PET/CT imaging and biodistribution studies.
# (§2) For biodistribution studies, the mice were injected with the radiotracer (~2–4 MBq) as described above. At 1 h post injection, the mice were euthanized by CO2 inhalation. Blood was withdrawn by cardiac puncture, and organs/tissues of interest were collected, weighed, and counted using a Perkin Elmer (Waltham, MA, USA) Wizard2 2480 automatic gamma counter.
# [2] = tested on: PSMA-expressing LNCaP tumor xenografts; experiment: Ex vivo biodistribution in LNCaP tumor-bearing mice; conditions: LNCaP tumor-bearing mice, 1 h post injection, mean ± SD, n = 4
# Description: Biodistribution studies were conducted at 1 h post injection with ^68Ga-labeled AV01017, AV01030, AV01038, HTK03041, and FAPI-04 in LNCaP tumor-bearing mice (Figure 5 and Table S4, Supplementary Materials). The results were consistent with the observation from their PET images. Tumor uptake values for [^68Ga]Ga-AV01017, [^68Ga]Ga-AV01030, [^68Ga]Ga-AV01038, [^68Ga]Ga-HTK03041, and [^68Ga]Ga-FAPI-04 were 4.38 ± 0.55, 5.17 ± 0.51, 4.25 ± 0.86, 23.1 ± 6.11, and 3.15 ± 1.43 %ID/g, respectively. […] Although not statistically significant, the bispecific tracers with a longer linker tend to have a higher blood uptake value (9.24 ± 1.55 %ID/g for [^68Ga]Ga-AV01017; 7.07 ± 0.31%ID/g for [^68Ga]Ga-AV01038; 5.75 ± 0.59 %ID/g for [^68Ga]Ga-AV01030) and a lower tumor-to-blood ratio (0.48 ± 0.11 for [^68Ga]Ga-AV01017; 0.60 ± 0.13 for [^68Ga]Ga-AV01038; 0.89 ± 0.03 for [^68Ga]Ga-AV01030).
# as §1, §2
smiles,measurement,setting,value
N#C[C@@H]1CC(F)(F)CN1C(=O)CNC(=O)c1ccnc2ccc(-c3cn(CC(=O)N[C@@H](CCCCNC(=O)CN4CCN(CC(=O)[O-])CCN(CC(=O)[O-])CCN(CC(=O)[O-])CC4)C(=O)NCC(=O)NC[C@H]4CC[C@H](C(=O)N[C@@H](Cc5c6ccccc6cc6ccccc56)C(=O)NCCCC[C@H](NC(=O)N[C@@H](CCC(=O)O)C(=O)O)C(=O)O)CC4)nn3)cc12.[68Ga+3] [[^68Ga]Ga-AV01030],Adrenal glands uptake,[1],3.15 ± 0.39 %ID/g
same,Blood uptake,[1],5.68 ± 0.72 %ID/g
same,Bone uptake,[1],3.59 ± 0.44 %ID/g
same,Brain uptake,[1],0.12 ± 0.02 %ID/g
same,Fat uptake,[1],0.63 ± 0.20 %ID/g
same,HEK293T:hFAP tumor uptake,[1],3.69 ± 0.81 %ID/g
same,Heart uptake,[1],2.20 ± 0.46 %ID/g
same,Kidneys uptake,[1],30.0 ± 8.71 %ID/g
same,Lacrimal gland uptake,[1],0.20 ± 0.24 %ID/g
same,Large Intestine uptake,[1],1.15 ± 0.10 %ID/g
same,Liver uptake,[1],1.51 ± 0.33 %ID/g
same,Lungs uptake,[1],3.02 ± 0.25 %ID/g
same,Muscle uptake,[1],1.78 ± 0.58 %ID/g
same,Pancreas uptake,[1],3.26 ± 0.82 %ID/g
same,Salivary glands uptake,[1],7.01 ± 2.25 %ID/g
same,Small Intestine uptake,[1],1.23 ± 0.16 %ID/g
same,Spleen uptake,[1],7.41 ± 1.75 %ID/g
same,Stomach uptake,[1],0.42 ± 0.04 %ID/g
same,Testes uptake,[1],0.66 ± 0.08 %ID/g
same,Thyroid uptake,[1],7.70 ± 1.08 %ID/g
same,Tumor/bone uptake ratio,[1],1.04 ± 0.31
same,Tumor/muscle uptake ratio,[1],2.12 ± 0.30
same,Adrenal glands uptake,[2],3.13 ± 1.25 %ID/g
same,Blood uptake,[2],5.75 ± 0.59 %ID/g
same,Bone uptake,[2],4.48 ± 0.59 %ID/g
same,Brain uptake,[2],0.12 ± 0.01 %ID/g
same,Fat uptake,[2],0.68 ± 0.12 %ID/g
same,Heart uptake,[2],2.41 ± 0.13 %ID/g
same,Kidneys uptake,[2],44.0 ± 2.42 %ID/g
same,LNCaP tumor uptake,[2],5.17 ± 0.51 %ID/g
same,Lacrimal glands uptake,[2],0.44 ± 0.68 %ID/g
same,Large Intestine uptake,[2],1.32 ± 0.29 %ID/g
same,Liver uptake,[2],1.43 ± 0.26 %ID/g
same,Lungs uptake,[2],2.93 ± 0.28 %ID/g
same,Muscle uptake,[2],1.59 ± 0.14 %ID/g
same,Pancreas uptake,[2],3.63 ± 0.29 %ID/g
same,Salivary glands uptake,[2],4.76 ± 1.79 %ID/g
same,Seminal vesicle uptake,[2],1.04 ± 0.13 %ID/g
same,Small Intestine uptake,[2],1.58 ± 0.13 %ID/g
same,Spleen uptake,[2],6.50 ± 1.37 %ID/g
same,Stomach uptake,[2],0.44 ± 0.07 %ID/g
same,Testes uptake,[2],0.70 ± 0.08 %ID/g
same,Thyroid uptake,[2],8.33 ± 0.41 %ID/g
same,Tumor/blood uptake ratio,[2],0.89 ± 0.03
same,Tumor/bone uptake ratio,[2],1.17 ± 0.26
same,Tumor/kidney uptake ratio,[2],0.11 ± 0.00
same,Tumor/muscle uptake ratio,[2],3.25 ± 0.39
N#C[C@@H]1CC(F)(F)CN1C(=O)CNC(=O)c1ccnc2ccc(OCc3cn(CC(=O)N[C@@H](CCCCNC(=O)CN4CCN(CC(=O)[O-])CCN(CC(=O)[O-])CCN(CC(=O)[O-])CC4)C(=O)NCC(=O)NC[C@H]4CC[C@H](C(=O)N[C@@H](Cc5c6ccccc6cc6ccccc56)C(=O)NCCCC[C@H](NC(=O)N[C@@H](CCC(=O)O)C(=O)O)C(=O)O)CC4)nn3)cc12.[68Ga+3] [[^68Ga]Ga-AV01038],Adrenal glands uptake,[1],6.14 ± 3.79 %ID/g
same,Blood uptake,[1],7.45 ± 1.70 %ID/g
same,Bone uptake,[1],3.03 ± 1.12 %ID/g
same,Brain uptake,[1],0.13 ± 0.02 %ID/g
same,Fat uptake,[1],0.53 ± 0.10 %ID/g
same,HEK293T:hFAP tumor uptake,[1],3.64 ± 0.83 %ID/g
same,Heart uptake,[1],2.69 ± 0.22 %ID/g
same,Kidneys uptake,[1],25.0 ± 1.76 %ID/g
same,Lacrimal gland uptake,[1],0.22 ± 0.16 %ID/g
same,Large Intestine uptake,[1],0.99 ± 0.17 %ID/g
same,Liver uptake,[1],2.16 ± 0.33 %ID/g
same,Lungs uptake,[1],3.83 ± 0.55 %ID/g
same,Muscle uptake,[1],1.23 ± 0.11 %ID/g
same,Pancreas uptake,[1],3.82 ± 1.29 %ID/g
same,Salivary glands uptake,[1],4.02 ± 0.69 %ID/g
same,Seminal vesicle uptake,[1],1.15 ± 0.69 %ID/g
same,Small Intestine uptake,[1],1.70 ± 0.19 %ID/g
same,Spleen uptake,[1],5.47 ± 1.03 %ID/g
same,Stomach uptake,[1],0.60 ± 0.18 %ID/g
same,Testes uptake,[1],0.74 ± 0.09 %ID/g
same,Thyroid uptake,[1],6.51 ± 1.07 %ID/g
same,Tumor/blood uptake ratio,[1],0.49 ± 0.37
same,Tumor/bone uptake ratio,[1],1.17 ± 0.40
same,Tumor/kidney uptake ratio,[1],0.11 ± 0.02
same,Tumor/muscle uptake ratio,[1],2.21 ± 0.17
same,Adrenal glands uptake,[2],3.69 ± 2.54 %ID/g
same,Blood uptake,[2],7.07 ± 0.31 %ID/g
same,Bone uptake,[2],4.64 ± 1.70 %ID/g
same,Brain uptake,[2],0.15 ± 0.02 %ID/g
same,Fat uptake,[2],1.01 ± 0.28 %ID/g
same,Heart uptake,[2],3.26 ± 0.24 %ID/g
same,Kidneys uptake,[2],40.5 ± 8.26 %ID/g
same,LNCaP tumor uptake,[2],4.25 ± 0.86 %ID/g
same,Lacrimal glands uptake,[2],0.06 ± 0.13 %ID/g
same,Large Intestine uptake,[2],1.65 ± 0.31 %ID/g
same,Liver uptake,[2],2.06 ± 0.13 %ID/g
same,Lungs uptake,[2],3.74 ± 0.78 %ID/g
same,Muscle uptake,[2],1.68 ± 0.21 %ID/g
same,Pancreas uptake,[2],3.91 ± 0.20 %ID/g
same,Salivary glands uptake,[2],6.41 ± 1.19 %ID/g
same,Seminal vesicle uptake,[2],1.51 ± 0.08 %ID/g
same,Small Intestine uptake,[2],2.12 ± 0.24 %ID/g
same,Spleen uptake,[2],6.77 ± 4.86 %ID/g
same,Stomach uptake,[2],0.64 ± 0.11 %ID/g
same,Testes uptake,[2],1.04 ± 0.10 %ID/g
same,Thyroid uptake,[2],11.1 ± 1.62 %ID/g
same,Tumor/blood uptake ratio,[2],0.60 ± 0.13
same,Tumor/bone uptake ratio,[2],0.97 ± 0.30
same,Tumor/kidney uptake ratio,[2],0.10 ± 0.02
same,Tumor/muscle uptake ratio,[2],2.52 ± 0.33
N#C[C@@H]1CC(F)(F)CN1C(=O)CNC(=O)c1ccnc2ccc(OCCCc3cn(CC(=O)N[C@@H](CCCCNC(=O)CN4CCN(CC(=O)[O-])CCN(CC(=O)[O-])CCN(CC(=O)[O-])CC4)C(=O)NCC(=O)NC[C@H]4CC[C@H](C(=O)N[C@@H](Cc5c6ccccc6cc6ccccc56)C(=O)NCCCC[C@H](NC(=O)N[C@@H](CCC(=O)O)C(=O)O)C(=O)O)CC4)nn3)cc12.[68Ga+3] [[^68Ga]Ga-AV01017],Adrenal glands uptake,[1],4.06 ± 0.27 %ID/g
same,Blood uptake,[1],11.9 ± 3.37 %ID/g
same,Bone uptake,[1],5.26 ± 0.32 %ID/g
same,Brain uptake,[1],0.21 ± 0.07 %ID/g
same,Fat uptake,[1],0.61 ± 0.13 %ID/g
same,HEK293T:hFAP tumor uptake,[1],2.99 ± 0.37 %ID/g
same,Heart uptake,[1],4.63 ± 0.42 %ID/g
same,Kidneys uptake,[1],19.3 ± 2.25 %ID/g
same,Lacrimal gland uptake,[1],1.34 ± 0.50 %ID/g
same,Large Intestine uptake,[1],1.44 ± 0.20 %ID/g
same,Liver uptake,[1],3.40 ± 0.64 %ID/g
same,Lungs uptake,[1],5.50 ± 1.26 %ID/g
same,Muscle uptake,[1],1.63 ± 0.06 %ID/g
same,Pancreas uptake,[1],3.80 ± 0.25 %ID/g
same,Salivary glands uptake,[1],6.43 ± 1.03 %ID/g
same,Seminal vesicle uptake,[1],1.15 ± 0.33 %ID/g
same,Small Intestine uptake,[1],2.14 ± 0.65 %ID/g
same,Spleen uptake,[1],3.63 ± 3.60 %ID/g
same,Stomach uptake,[1],0.63 ± 0.08 %ID/g
same,Testes uptake,[1],1.15 ± 0.86 %ID/g
same,Thyroid uptake,[1],10.7 ± 2.15 %ID/g
same,Tumor/blood uptake ratio,[1],0.18 ± 0.08
same,Tumor/bone uptake ratio,[1],0.44 ± 0.12
same,Tumor/kidney uptake ratio,[1],0.11 ± 0.03
same,Tumor/muscle uptake ratio,[1],1.25 ± 0.17
same,Adrenal glands uptake,[2],6.24 ± 2.31 %ID/g
same,Blood uptake,[2],9.24 ± 1.55 %ID/g
same,Bone uptake,[2],4.05 ± 0.86 %ID/g
same,Brain uptake,[2],0.18 ± 0.01 %ID/g
same,Fat uptake,[2],1.01 ± 0.48 %ID/g
same,Heart uptake,[2],4.04 ± 0.28 %ID/g
same,Kidneys uptake,[2],30.9 ± 6.89 %ID/g
same,LNCaP tumor uptake,[2],4.38 ± 0.55 %ID/g
same,Lacrimal glands uptake,[2],0.13 ± 0.27 %ID/g
same,Large Intestine uptake,[2],1.76 ± 0.21 %ID/g
same,Liver uptake,[2],2.24 ± 0.34 %ID/g
same,Lungs uptake,[2],3.76 ± 0.66 %ID/g
same,Muscle uptake,[2],1.91 ± 0.43 %ID/g
same,Pancreas uptake,[2],5.38 ± 1.29 %ID/g
same,Salivary glands uptake,[2],5.98 ± 4.00 %ID/g
same,Seminal vesicle uptake,[2],1.12 ± 0.21 %ID/g
same,Small Intestine uptake,[2],2.47 ± 0.48 %ID/g
same,Spleen uptake,[2],3.73 ± 1.19 %ID/g
same,Stomach uptake,[2],0.64 ± 0.11 %ID/g
same,Testes uptake,[2],0.69 ± 0.06 %ID/g
same,Thyroid uptake,[2],12.7 ± 2.72 %ID/g
same,Tumor/blood uptake ratio,[2],0.48 ± 0.11
same,Tumor/bone uptake ratio,[2],1.10 ± 0.15
same,Tumor/kidney uptake ratio,[2],0.14 ± 0.03
same,Tumor/muscle uptake ratio,[2],2.35 ± 0.35
